Test results reported in ChEMBL document CHEMBL4020763, “N-(1H-Pyrazol-3-yl)quinazolin-4-amines as a novel class of casein kinase 1δ/ε inhibitors: Synthesis, biological evaluation and molecular modeling studies” (Bioorg Med Chem Lett, 2017).

How the values were obtained:
[1] = test system: PANC-1; experiment: Growth inhibition of human PANC1 cells at 100 uM by MTT assay relative to control; type: functional; conditions: read-out: GI
[2] = target: Glycogen synthase kinase-3 (Sus scrofa) (UniProt B2LUN4+I6LNT8); experiment: Inhibition of porcine brain GSK-3 alpha/beta at 10 uM using YRRAAVPPSPSLSRHSSPHQpSEDEEE as substrate after 30 mins in presence of ATP by scintillation counting method relative to control
[3] = target: CDK9/cyclin T1 (Homo sapiens) (UniProt O60563+P50750); experiment: Inhibition of recombinant human CDK9/cyclin T expressed in insect cells at 10 uM using YSPTSPSYSPTSPSYSPTSPSKKKK as substrate after 30 mins in presence of ATP by scintillation counting method relative to control
[4] = target: Dual specificity protein kinase CLK1 (Mus musculus, UniProt P22518); experiment: Inhibition of recombinant mouse GST-fused CLK1 expressed in Escherichia coli using RS peptide as substrate after 30 mins in presence of ATP by scintillation counting method
[5] = test system: MIA PaCa-2; experiment: Cytotoxicity against human MIAPaCa2 cells by MTT assay; type: functional, cell-based
[6] = test system: MDA-MB-231; experiment: Growth inhibition of human MDA-MB-231 cells at 100 uM by MTT assay relative to control; type: functional; conditions: read-out: GI
[7] = Inhibition of porcine brain CK1-delta/epsilon using CSK peptide as substrate after 30 mins in presence of ATP by scintillation counting method; design: species or system Sus scrofa
[8] = test system: HCT-15; experiment: Cytotoxicity against human HCT15 cells by MTT assay; type: functional, cell-based
[9] = test system: A549; experiment: Cytotoxicity against human A549 cells by MTT assay; type: functional, cell-based
[10] = target: Dual specificity tyrosine-phosphorylation-regulated kinase 1A (Homo sapiens) (UniProt Q13627); experiment: Inhibition of recombinant full length human GST-fused DYRK1A expressed in Escherichia coli at 10 uM using RS peptide as substrate after 30 mins in presence of ATP by scintillation counting method relative to control
[11] = target: CDK2/Cyclin A2 (Homo sapiens) (UniProt P24941+P20248); experiment: Inhibition of recombinant human CDK2/cyclin A at 10 uM using histone H1 as substrate after 30 mins in presence of ATP by scintillation counting method relative to control; type: protein-complex assay
[12] = test system: ZR-75-1; experiment: Cytotoxicity against human ZR-75-1 cells by MTT assay; type: functional, cell-based
[13] = organism: Sus scrofa; experiment: Inhibition of porcine brain CK1-delta/epsilon at 10 uM using CSK peptide as substrate after 30 mins in presence of ATP by scintillation counting method relative to control
[14] = test system: MDA-MB-468; experiment: Growth inhibition of human MDA-MB-468 cells at 100 uM by MTT assay relative to control; type: functional; conditions: read-out: GI
[15] = test system: A549; experiment: Growth inhibition of human A549 cells at 100 uM by MTT assay relative to control; type: functional; conditions: read-out: GI
[16] = test system: Asteroidea; experiment: Inhibition of M-phase starfish oocytes CDK1/cyclin B at 10 uM using histone H1 as substrate after 30 mins in presence of ATP by scintillation counting method relative to control
[17] = test system: PANC-1; experiment: Cytotoxicity against human PANC1 cells by MTT assay; type: functional, cell-based
[18] = test system: MCF7; experiment: Cytotoxicity against human MCF7 cells by MTT assay; type: functional, cell-based
[19] = Growth inhibition of HEK293 cells at 100 uM by MTT assay relative to control; type: cell-based; conditions: human, read-out: GI
[20] = test system: MIA PaCa-2; experiment: Growth inhibition of human MIAPaCa2 cells at 100 uM by MTT assay relative to control; type: functional; conditions: read-out: GI
[21] = test system: BT-20; experiment: Cytotoxicity against human BT20 cells by MTT assay; type: functional, cell-based
[22] = test system: MDA-MB-231; experiment: Cytotoxicity against human MDA-MB-231 cells by MTT assay; type: functional, cell-based
[23] = target: Cyclin-dependent kinase 5/CDK5 activator 1 (Homo sapiens) (UniProt Q00535+Q15078); experiment: Inhibition of recombinant human CDK5/p25 expressed in Escherichia coli at 10 uM using histone H1 as substrate after 30 mins in presence of ATP by scintillation counting method relative to control
[24] = test system: ZR-75-30; experiment: Growth inhibition of human ZR-7530 cells at 100 uM by MTT assay relative to control; type: functional; conditions: read-out: GI
[25] = test system: DU-145; experiment: Growth inhibition of human DU145 cells at 100 uM by MTT assay relative to control; type: functional; conditions: read-out: GI
[26] = Inhibition of M-phase starfish oocytes CDK1/cyclin B using histone H1 as substrate after 30 mins in presence of ATP by scintillation counting method; design: species or system Asteroidea
[27] = test system: BT-20; experiment: Growth inhibition of human BT20 cells at 100 uM by MTT assay relative to control; type: functional; conditions: read-out: GI
[28] = test system: ZR-75-1; experiment: Growth inhibition of human ZR-75-1 cells at 100 uM by MTT assay relative to control; type: functional; conditions: read-out: GI
[29] = target: CDK2/Cyclin A2 (Homo sapiens, UniProt P24941); experiment: Inhibition of recombinant human CDK2/cyclin A using histone H1 as substrate after 30 mins in presence of ATP by scintillation counting method; type: protein-complex assay
[30] = test system: ZR-75-30; experiment: Cytotoxicity against human ZR-7530 cells by MTT assay; type: functional, cell-based
[31] = test system: HCT-15; experiment: Growth inhibition of human HCT15 cells at 100 uM by MTT assay relative to control; type: functional; conditions: read-out: GI
[32] = test system: MCF7; experiment: Growth inhibition of human MCF7 cells at 100 uM by MTT assay relative to control; type: functional; conditions: read-out: GI
[33] = test system: MDA-MB-468; experiment: Cytotoxicity against human MDA-MB-468 cells by MTT assay; type: functional, cell-based
[34] = test system: HEK293; experiment: Cytotoxicity against HEK293 cells by MTT assay; type: cell-based; conditions: Homo sapiens
[35] = target: Glycogen synthase kinase-3 (Sus scrofa, UniProt B2LUN4+I6LNT8); experiment: Inhibition of porcine brain GSK-3 alpha/beta using YRRAAVPPSPSLSRHSSPHQpSEDEEE as substrate after 30 mins in presence of ATP by scintillation counting method
[36] = target: Dual specificity protein kinase CLK1 (Mus musculus) (UniProt P22518); experiment: Inhibition of recombinant mouse GST-fused CLK1 expressed in Escherichia coli at 10 uM using RS peptide as substrate after 30 mins in presence of ATP by scintillation counting method relative to control
Sequence of Dual specificity protein kinase CLK1 (Mus musculus) (P22518 whole entry, looked up, the tested form may be a part): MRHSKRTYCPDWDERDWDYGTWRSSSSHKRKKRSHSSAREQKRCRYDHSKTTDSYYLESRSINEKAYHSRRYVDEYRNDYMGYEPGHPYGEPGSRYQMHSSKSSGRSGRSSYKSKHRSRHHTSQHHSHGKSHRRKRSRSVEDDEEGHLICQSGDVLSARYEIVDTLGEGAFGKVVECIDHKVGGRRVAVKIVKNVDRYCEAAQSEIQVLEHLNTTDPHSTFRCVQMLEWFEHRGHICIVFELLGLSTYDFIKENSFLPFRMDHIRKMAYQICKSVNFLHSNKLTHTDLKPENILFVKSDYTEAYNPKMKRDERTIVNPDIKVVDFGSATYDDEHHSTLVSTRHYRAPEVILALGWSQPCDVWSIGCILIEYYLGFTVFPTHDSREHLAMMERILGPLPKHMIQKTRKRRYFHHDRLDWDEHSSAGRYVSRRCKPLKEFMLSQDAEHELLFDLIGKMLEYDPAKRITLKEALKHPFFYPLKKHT

Sequence of Cyclin-dependent kinase 5/CDK5 activator 1 (Homo sapiens) (Q00535 whole entry): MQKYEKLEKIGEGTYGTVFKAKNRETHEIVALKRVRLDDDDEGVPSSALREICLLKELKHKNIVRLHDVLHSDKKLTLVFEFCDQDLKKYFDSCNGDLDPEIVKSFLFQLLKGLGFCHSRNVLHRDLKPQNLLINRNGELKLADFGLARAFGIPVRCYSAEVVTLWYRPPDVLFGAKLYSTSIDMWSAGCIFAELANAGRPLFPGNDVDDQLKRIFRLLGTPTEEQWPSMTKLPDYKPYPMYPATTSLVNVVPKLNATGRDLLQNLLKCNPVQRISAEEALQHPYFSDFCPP
Sequence of Cyclin-dependent kinase 5/CDK5 activator 1 (Homo sapiens) (Q15078 99-307 partner limits assumed): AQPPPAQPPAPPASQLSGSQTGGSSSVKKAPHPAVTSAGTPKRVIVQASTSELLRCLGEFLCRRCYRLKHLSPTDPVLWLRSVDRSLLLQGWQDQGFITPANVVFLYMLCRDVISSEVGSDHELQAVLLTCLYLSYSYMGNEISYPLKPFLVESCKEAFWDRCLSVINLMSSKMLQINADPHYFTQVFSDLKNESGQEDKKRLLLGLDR
Sequence of Dual specificity protein kinase CLK1 (P22518 whole entry, the tested form may be a part): as the sequence (P22518 whole entry, looked up, the tested form may be a part) above

| SMILES | inhibition of growth at 100 µM [1] [%] | inhibition [2] [%] | inhibition [3] [%] | IC50 [4] [µM] | IC50 [5] [µM] | inhibition of growth at 100 µM [6] [%] | IC50 [7] [µM] | IC50 [8] [µM] | IC50 [9] [µM] | inhibition [10] [%] | inhibition [11] [%] | IC50 [12] [µM] | inhibition [13] [%] | inhibition of growth at 100 µM [14] [%] | inhibition of growth at 100 µM [15] [%] | inhibition [16] [%] | IC50 [17] [µM] | IC50 [26] [µM] | IC50 [29] [µM] | IC50 [35] [µM] | other results |
| --- | --- | --- | --- | --- | --- | --- | --- | --- | --- | --- | --- | --- | --- | --- | --- | --- | --- | --- | --- | --- | --- |
| COc1cc2ncnc(Nc3cc(-c4ccccc4)n(-c4ccccc4)n3)c2cc1OC | > 50 | > 50 | > 50 | > 10 | 72.9 | > 50 | < 10 | < 100 | < 100 | > 50 | > 50 | > 100 | > 50 | > 50 | > 50 | > 50 | 70.7 | > 10 | > 10 | > 10 | IC50 [18]: > 100 µM; inhibition at 100 µM [19]: > 50%; inhibition of growth at 100 µM [20]: > 50%; IC50 [21]: > 100 µM; IC50 [22]: 72.9 µM; inhibition [23]: > 50%; inhibition of growth at 100 µM [24]: > 50%; inhibition of growth at 100 µM [25]: > 50%; inhibition of growth at 100 µM [27]: > 50%; inhibition of growth at 100 µM [28]: > 50%; IC50 [30]: 58.8 µM; inhibition of growth at 100 µM [31]: > 50%; inhibition of growth at 100 µM [32]: > 50%; IC50 [33]: > 100 µM; IC50 [34]: > 100 µM; inhibition [36]: > 50% |
| COc1cc2ncnc(Nc3cc(-c4ccccc4)[nH]n3)c2cc1OC | > 50 | > 50 | > 50 | > 10 | > 100 | > 50 | 1.6 | > 100 | 29.7 | > 50 | > 50 | > 100 | > 50 | > 50 | > 50 | > 50 | 9.3 | > 10 | > 10 | > 10 | IC50 [18]: > 100 µM; inhibition at 100 µM [19]: > 50%; inhibition of growth at 100 µM [20]: > 50%; IC50 [21]: > 100 µM; IC50 [22]: > 100 µM; inhibition [23]: > 50%; inhibition of growth at 100 µM [24]: > 50%; inhibition of growth at 100 µM [25]: > 50%; inhibition of growth at 100 µM [27]: > 50%; inhibition of growth at 100 µM [28]: > 50%; IC50 [30]: > 100 µM; inhibition of growth at 100 µM [31]: > 50%; inhibition of growth at 100 µM [32]: > 50%; IC50 [33]: > 100 µM; IC50 [34]: 71.1 µM; inhibition [36]: > 50% |
| COc1cc2ncnc(Nc3n[nH]cc3C#N)c2cc1OC | > 50 | > 50 | > 50 | > 10 | > 100 | > 50 | < 10 | > 100 | > 100 | > 50 | > 50 | > 100 | > 50 | > 50 | > 50 | > 50 | > 100 | > 10 | > 10 | > 10 | IC50 [18]: > 100 µM; inhibition at 100 µM [19]: > 50%; inhibition of growth at 100 µM [20]: > 50%; IC50 [21]: > 100 µM; IC50 [22]: > 100 µM; inhibition [23]: > 50%; inhibition of growth at 100 µM [24]: > 50%; inhibition of growth at 100 µM [25]: > 50%; inhibition of growth at 100 µM [27]: > 50%; inhibition of growth at 100 µM [28]: > 50%; IC50 [30]: > 100 µM; inhibition of growth at 100 µM [31]: > 50%; inhibition of growth at 100 µM [32]: > 50%; IC50 [33]: > 100 µM; IC50 [34]: > 100 µM; inhibition [36]: > 50% |
| COc1cc2ncnc(Nc3cc(-c4ccc(Cl)cc4)[nH]n3)c2cc1OC | > 50 | > 50 | > 50 | > 10 | < 100 | > 50 | < 10 | 98.2 | > 100 | > 50 | > 50 | > 100 | > 50 | > 50 | > 50 | > 50 | > 100 | > 10 | > 10 | > 10 | IC50 [18]: > 100 µM; inhibition at 100 µM [19]: > 50%; inhibition of growth at 100 µM [20]: > 50%; IC50 [21]: > 100 µM; IC50 [22]: < 100 µM; inhibition [23]: > 50%; inhibition of growth at 100 µM [24]: > 50%; inhibition of growth at 100 µM [25]: > 50%; inhibition of growth at 100 µM [27]: > 50%; inhibition of growth at 100 µM [28]: > 50%; IC50 [30]: 91.5 µM; inhibition of growth at 100 µM [31]: > 50%; inhibition of growth at 100 µM [32]: > 50%; IC50 [33]: 79.5 µM; IC50 [34]: 81.2 µM; inhibition [36]: > 50% |
| COc1ccc2c(c1)[nH]c1c(C)nccc12 [HARMINE] |  |  |  |  |  |  |  |  |  |  |  |  |  |  |  |  |  | > 10 | > 10 | > 10 |  |
